Laboratory results from patent US20250326799A1, “AGENTS INDUCING VASCULARISATION” (Coegin Pharma AB, priority 2022, published 2025).
“Also recorded” adds a separate entry of the source.

Experiments:
[1] = tested on: human coronary artery smooth muscle cells (HCASMCs); test: sFasL-induced apoptosis, caspase 3 and 7 activation, HCASMCs; type: cell-based; details: 10 nM, 100 nM, 1000 nM
Procedure: Human Umbilical Vein Endothelial Cells (HUVECs) and Human Coronary Artery Smooth Muscle Cells (HCASMCs) were purchased from Thermo Fisher. Cells were grown in Medium 200 containing 2% Low Serum Growth Supplement and Medium 231 with 5% Smooth Muscle Growth Supplement (Invitrogen, CA, USA) respectively with addition of Antibiotic-Antimycotic (1%, Invitrogen, CA, USA). Test polypeptide and sFasL (PeproTech, NJ, USA) were dissolved in the respective complete medium.
Caspase-Glo 3/7 Assay (Promega, USA) was performed to evaluate cell apoptosis. HUVECs and HCASMCs were seeded into 96-well plates at a density of 3-5×10^3 per well. For additional NRP-1 on cells transfected siRNA, NRP-1 was added 24 hours after transfection and the mixture of Caspase-Glo 3/7 was added 48 hours after polypeptide stimulations. Subsequent steps were performed as manufacturer's instructions using the FOL26 and FOL56 as test compounds. Data were read by Wallac 1420 Victor 2 (Perkin Elmer, USA).

[2] = tested on: Human umbilical cord endothelial cells (HUVECs); test: Gene expression by PCR in endothelial cells; type: cell-based; details: for expression of PECAM-1 (CD31): HUVECs
Procedure: Human umbilical cord endothelial cells were first treated with a scramble non-coding siRNA (NC) or siRNA for NRP-1, subsequently treated with FOL26 in concentrations of 10 nM, 100 nM, and 1000 nM, and endothelial tube formation and the total master segemnts were measured using ImageJ. gene expression of PECAM-1 (CD31) analyzed.
Cells on 6-well plates were washed with cold DPBS (Gibco, USA) and homogenized in Trizol reagent (Invitrogen, CA, USA). Total RNA was extracted using PureLink RNA Mini Kit (Invitrogen, CA, USA), followed by nucleic acid quantification with NanoDrop 2000c (Thermo Fisher Scientific, USA). To determine mRNA expression of target genes, real-time qPCR was performed using by KAPA SYBR FAST One-Step qRT-PCR Master Mix Kit (KAPA Biosystems, USA) on LightCycler480 system (Roche, Mannheim, Germany). All primers were purchased from miScript Primer Assays (Qiagen, Valencia, CA) and GAPDH mRNA expression of each sample was used for normalization. Cells on 6-well plates were washed with cold DPBS and lysed with the mixture of lysis buffer and protease inhibitors on ice, then centrifuged at 15,000 g for 20 min at 4° C. Supernatant was performed to measure the protein concentration using BCA Protein Assay Kit (Thermo Fisher Scientific, USA). Protein sample was loaded onto SDS-PAGE gels and separated with electrophoresis, followed by transferred to PVDF membranes (Millipore, USA). Membranes were blocked with 5% nonfat milk. Primary antibodies (Abcam, UK) and secondary antibodies were performed to incubate with membranes at 4° C. overnight and at room temperature for 1 hour respectively. […]

[3] = Vessel density, CD31+ positive area; details: in vivo
Procedure: Quantified measurement of total length (FIG. 20b), total master segments length (FIG. 20c), total branching length (FIG. 20d) and total segments length (FIG. 20e) were performed to evaluate angiogenesis in vitro (n=7 per group for FIG. 29 b-e). The quantification of vessel density was assessed with CD31+ positive area (FIG. 21a, n=13 per group). Western blot analysis of phosphorylated AKT (pAKT-T308), AKT, phosphorylated ERK1/2 (p-ERK1/2) and ERK1/2 in endothelial cells stimulated with FOL-26 peptides for 48 hours (FIG. 21b). Quantification of phosphorylation intensities normalized to respective total expressions (FIG. 21c-d, n=3 per group).

[4] = tested on: Human umbilical cord endothelial cells (HUVECs); test: Gene expression by PCR in endothelial cells; type: cell-based
[5] = tested on: Human coronary artery smooth cells (HCASMCs); test: Gene expression by PCR in arterial smooth muscle cells; type: cell-based
Procedure: Cells on 6-well plates were washed with cold DPBS (Gibco, USA) and homogenized in Trizol reagent (Invitrogen, CA, USA). Total RNA was extracted using PureLink RNA Mini Kit (Invitrogen, CA, USA), followed by nucleic acid quantification with NanoDrop 2000c (Thermo Fisher Scientific, USA). To determine mRNA expression of target genes, real-time qPCR was performed using by KAPA SYBR FAST One-Step qRT-PCR Master Mix Kit (KAPA Biosystems, USA) on LightCycler480 system (Roche, Mannheim, Germany). All primers were purchased from miScript Primer Assays (Qiagen, Valencia, CA) and GAPDH mRNA expression of each sample was used for normalization. Cells on 6-well plates were washed with cold DPBS and lysed with the mixture of lysis buffer and protease inhibitors on ice, then centrifuged at 15,000 g for 20 min at 4° C. Supernatant was performed to measure the protein concentration using BCA Protein Assay Kit (Thermo Fisher Scientific, USA). Protein sample was loaded onto SDS-PAGE gels and separated with electrophoresis, followed by transferred to PVDF membranes (Millipore, USA). Membranes were blocked with 5% nonfat milk. Primary antibodies (Abcam, UK) and secondary antibodies were performed to incubate with membranes at 4° C. overnight and at room temperature for 1 hour respectively.

[6] = tested on: human coronary smooth muscle cells (HCASMCs); test: H2O2 measurement after oxLDL, smooth muscle cells; type: cell-based; details: smooth muscle cells pre-incubated with peptide; 50 ug/ml oxLDL for 2 hours
Procedure: The effect of FOL-026 peptide treatment on smooth muscle cell proliferation (FIG. 25a) and apoptosis (FIG. 25c) induced with low-oxygen condition was evaluated with the uptake of BrdU (n=10 per group) and active caspase-3/-7 (n=6-8 per group) separately. H2O2 measurement (FIG. 25b) of smooth muscle cells pre-incubated with FOL-26 peptides after 50 ug/ml oxidized Low-density Lipoprotein (oxLDL) stimulation for 2 hours (n=6-7 per group). Representative images of scratch wound assay in vitro are shown (FIG. 26a) and the ability of wound healing (FIG. 26b) in human coronary smooth muscle cells (HCASMCs) treated with FOL-026 peptides was measured by image J software (n=10 per group). Scale bar=150 um. Data are presented as means±SEM and acquired from 3 to 4 independent replicate tests. *P<0.05, **P<0.01, ***P<0.001, ****P<0.0001 by one-way ANOVA and Dunnett's post-hoc test.

**Q.** Which results are given for AEIDSIELSYGIK [FOL56]?
**A.** sFasL-induced apoptosis (caspase 3 and 7) [1]: reduced sFasL-induced apoptosis; also recorded: capable of inhibiting, or trended towards inhibiting apoptosis; expression of PECAM-1 (CD31) ([2]; 10 nM, 100 nM, 1000 nM tested): increased expression of PECAM-1

**Q.** Which “sFasL-induced apoptosis (caspase 3 and 7)” value ([1]; listed as FOL26) does the source give for VDTYDGGISVVYGLR [FOL-026] here?
**A.** Its value is “reduced sFasL-induced apoptosis; also recorded: capable of reversing the sFasL-induced apoptosis”.

**Q.** And the “vessel density (CD31+ positive area)” value [3]?
**A.** Its value is “increased vessel density”.

**Q.** And the VEGFR-2 gene expression ([4]; 10 nM)?
**A.** Its VEGFR-2 gene expression is “reduced”.

**Q.** And the TNF-α gene expression ([4]; 10 nM and 100 nM)?
**A.** The TNF-α gene expression was “reduced”.

**Q.** What about the IL-6 gene expression ([4]; 10 nM, 100 nM, 1000 nM tested) of the same sequence?
**A.** Its IL-6 gene expression is “no effect”.

**Q.** What about the MMP3 gene expression ([4]; 10 nM, 100 nM, 1000 nM tested) of the same sequence?
**A.** The MMP3 gene expression was “no effect”.

**Q.** What about the VEGF-A gene expression ([4]; 10 nM, 100 nM, 1000 nM tested) of the same sequence?
**A.** Its VEGF-A gene expression is “no effect”.

**Q.** And the c-Met gene expression ([4]; 10 nM, 100 nM, 1000 nM tested)?
**A.** The c-Met gene expression was “reducing”.

**Q.** What about the NRP-1 gene expression ([4]; 100 nM and 1000 nM) of the same sequence?
**A.** Its NRP-1 gene expression is “inducing”.

**Q.** And the MMP2 gene expression ([4]; 200 nM and 1000 nM)?
**A.** Its MMP2 gene expression is “induced”.

**Q.** What about the VEGFR-2 gene expression ([4]; 1000 nM) of the same sequence?
**A.** The VEGFR-2 gene expression was “induced”.

**Q.** What about the NRP-1 gene expression ([4]; lowest dose (10 nM)) of the same sequence?
**A.** Its NRP-1 gene expression is “reducing”.

**Q.** And the c-MET gene expression ([5]; 10 nM and 1000 nM)?
**A.** The c-MET gene expression was “reduced”.

**Q.** What about the MMP2 gene expression ([5]; 10, 100, and 1000 nM) of the same sequence?
**A.** The MMP2 gene expression was “induced”.

**Q.** What about the NRP-1 gene expression ([5]; 10, 100, and 1000 nM) of the same sequence?
**A.** The NRP-1 gene expression was “reduced”.

**Q.** What about the VEGF-A gene expression ([5]; 10, 100, and 1000 nM) of the same sequence?
**A.** Its VEGF-A gene expression is “induced”.

**Q.** What about the IL-6 gene expression ([5]; 100 and 1000 nM) of the same sequence?
**A.** The IL-6 gene expression was “induced”.

**Q.** What about the MMP3 gene expression ([5]; 100 and 1000 nM) of the same sequence?
**A.** Its MMP3 gene expression is “induced”.

**Q.** What about the TNF-α gene expression ([5]; 100 and 1000 nM) of the same sequence?
**A.** The TNF-α gene expression was “induced”.

**Q.** What about the “ROS formation (H2O2 measurement)” value [6] of the same sequence?
**A.** The value was “reduces ROS formation”.

**Q.** What about the “expression of PECAM-1 (CD31)” value ([2]; 10 nM, 100 nM, 1000 nM tested) of the same sequence?
**A.** The value was “increased expression of PECAM-1”.

**Q.** And the “expression of PECAM-1 (CD31)” value ([2]; 100 nM and 1000 nM)?
**A.** Its value is “increased”.

**Q.** And the angiogenesis related genes ([2]; endothelial cells)?
**A.** Its angiogenesis related genes is “induces upregulation”.
